Patent US8722088B2, “Pharmaceutical compositions and methods for the treatment of prostate cancer” (Ferring International Center S.A., priority 2009, dated 2014)
Like-named read-outs stand apart in the source and are kept apart here. Where a SMILES comes first, the peptide text is derived from it. [ ]: non-standard residue; d: D form. The star is where a group is joined. dPhe(4-NHCONH2) = NC(=O)Nc1ccc(C[C@@H](N)C(=O)O)cc1; Dihydroorotyl(S) = O=C1C[C@@H](C(=O)*)NC(=O)N1; dPhe(4-Cl) = N[C@H](Cc1ccc(Cl)cc1)C(=O)O; Phe(4-NH2) = Nc1ccc(C[C@H](N)C(=O)O)cc1; d2Nal = N[C@H](Cc1ccc2ccccc2c1)C(=O)O; Lys(iPr) = CC(C)NCCCC[C@H](N)C(=O)O; d3Pal = N[C@H](Cc1cccnc1)C(=O)O

Key:
[1] = tested on: PSA; assay: Clinical trial CS18: PSA change from baseline; assay type: in vivo, human
Experimental: PSA is a commonly used marker in the diagnosis of prostate cancer and has more recently also been used to monitor response to treatment as well as disease recurrence and progression (Fleming et al. (2006) Nat. Clin. Pract. Oncol. 3: 658-68; Lilja, et al. (2008) Nat. Rev. Cancer 8: 268-78). In general, higher levels of PSA are associated with more severe forms of prostate cancer, with metastatic stage prostate cancer being associated with the highest level of PSA (e.g., >50 ng/mL). Accordingly, rising PSA levels in patients undergoing prostate cancer treatment are associated with incomplete or failed efficacy of the treatment. Here, there were further reductions in PSA after Month 1 and the median reductions were sustained throughout the study period (median reductions of 96-97%).

[2] = human, in vivo, 80 mg
[3] = male, human, in vivo, sc
Experimental: (§1) The present study included a starting degarelix dose of 240 mg (with a concentration of 40 mg/mL of solvent), followed by maintenance doses of degarelix: i.e., 360 mg (with a concentration of 60 mg/mL of solvent) or 480 mg (with a concentration of 60 mg/mL of solvent), the latter administered at Months 1, 4, 7, and 10.
(§2) The study was open labeled and patients received a starting dose of 240 mg (with a concentration of 40 mg/mL of solvent) at Month 0 followed by one of two degarelix maintenance dose treatment regimens: 360 mg (with a concentration of 60 mg/mL of solvent) at Months 1, 4, 7, and 10; or 480 mg (with a concentration of 60 mg/mL of solvent) at Months 1, 4, 7, and 10.
(§3) The starting dose was administered subcutaneously as two injections of 120 mg (with a concentration of 40 mg/ml of solvent, given as 2×3 mL injections). After 28 days a maintenance dose of 360 mg (with a concentration of 60 mg/mL, given as 2×3 mL injections) or 480 mg (with a concentration of 60 mg/mL, given as 2×4 mL injections) was administered, also in two injections (each of 240 mg). Thereafter, with three monthly intervals, maintenance doses were given, again in the form of two injections. […] At each visit, serum testosterone, prostate specific androgen (PSA), and plasma concentration of degarelix were measured by techniques well known in the art.

[4] = human, in vivo
Source text: At the data cut-off date (i.e., seven months after commence of the clinical trial), 133 patients with prostate cancer were exposed to degarelix in the Phase 2, three-month dosing regimen clinical program (CS18).

[5] = clinical; conditions: male, human, in vivo, sc
Experimental: as §1, §2, §3

**Q.** Which “PSA, Median % Change from Baseline” value ([1]; 360/60 mg, Day 84) does the source give for `CC(=O)N[C@H](Cc1ccc2ccccc2c1)C(=O)N[C@H](Cc1ccc(Cl)cc1)C(=O)N[C@H](Cc1cccnc1)C(=O)N[C@@H](CO)C(=O)N[C@@H](Cc1ccc(NC(=O)[C@@H]2CC(=O)NC(=O)N2)cc1)C(=O)N[C@H](Cc1ccc(NC(N)=O)cc1)C(=O)N[C@@H](CC(C)C)C(=O)N[C@@H](CCCCNC(C)C)C(=O)N1CCC[C@H]1C(=O)N[C@H](C)C(N)=O` [Degarelix, D-Alaninamide, N-acetyl-3-(2-naphthalenyl)-D-alanyl-4-chloro-D-phenylalanyl-3-(3-pyridinyl)-D-alanyl-L-seryl-4-[[[(4S)-hexahydro-2,6-dioxo-4-pyrimidinyl]carbonyl]amino]-L-phenylalanyl-4-[(aminocarbonyl)amino]-D-phenylalanyl-L leucyl-N6-(1-methylethyl)-L-lysyl-L-prolyl] (Ac-[d2Nal][dPhe(4-Cl)][d3Pal]S[Phe(4-NH2)](Dihydroorotyl(S))[dPhe(4-NHCONH2)]L[Lys(iPr)]P[dA]-NH2) here?
**A.** Its value is −95.0%.

**Q.** What about the “PSA, Median % Change from Baseline” value ([1]; 360/60 mg, Day 112) of the same compound?
**A.** The value was −95.5%.

**Q.** And the “PSA, Median % Change from Baseline” value ([1]; 360/60 mg, Day 140)?
**A.** Its value is −96.2%.

**Q.** What about the “PSA, Median % Change from Baseline” value ([1]; 360/60 mg, Day 168) of the same compound?
**A.** Its value is −96.8%.

**Q.** And the “PSA, Median % Change from Baseline” value ([1]; 360/60 mg, Day 196)?
**A.** Its value is −95.9%.

**Q.** And the “PSA, Median % Change from Baseline” value ([1]; 360/60 mg, Day 224)?
**A.** Its value is −96.4%.

**Q.** What about the “PSA, Median % Change from Baseline” value ([1]; 360/60 mg, Day 252) of the same compound?
**A.** Its value is −97.0%.

**Q.** What about the “PSA, Median % Change from Baseline” value ([1]; 360/60 mg, Day 280) of the same compound?
**A.** Its value is −97.0%.

**Q.** What about the “PSA, Median % Change from Baseline” value ([1]; 360/60 mg, Day 308) of the same compound?
**A.** Its value is −97.3%.

**Q.** What about the “PSA, Median % Change from Baseline” value ([1]; 360/60 mg, Day 336) of the same compound?
**A.** The value was −97.5%.

**Q.** And the “PSA, Median % Change from Baseline” value ([1]; 360/60 mg, Day 364)?
**A.** Its value is −96.9%.

**Q.** And the “PSA, Median % Change from Baseline” value ([1]; 360/60 mg, Last visit)?
**A.** The value was −96.9%.

**Q.** What about the “PSA, Median % Change from Baseline” value ([1]; 480/60 mg, Day 28) of the same compound?
**A.** The value was −78.9%.

**Q.** And the “PSA, Median % Change from Baseline” value ([1]; 480/60 mg, Day 56)?
**A.** Its value is −90.9%.

**Q.** What about the “PSA, Median % Change from Baseline” value ([1]; 480/60 mg, Day 84) of the same compound?
**A.** Its value is −93.4%.

**Q.** What about the “PSA, Median % Change from Baseline” value ([1]; 480/60 mg, Day 112) of the same compound?
**A.** Its value is −95.3%.

**Q.** And the “PSA, Median % Change from Baseline” value ([1]; 480/60 mg, Day 140)?
**A.** The value was −95.5%.

**Q.** And the “PSA, Median % Change from Baseline” value ([1]; 480/60 mg, Day 168)?
**A.** Its value is −96.5%.

**Q.** And the “PSA, Median % Change from Baseline” value ([1]; 480/60 mg, Day 196)?
**A.** Its value is −96.2%.

**Q.** And the “PSA, Median % Change from Baseline” value ([1]; 480/60 mg, Day 224)?
**A.** The value was −96.6%.

**Q.** And the “PSA, Median % Change from Baseline” value ([1]; 480/60 mg, Day 252)?
**A.** Its value is −96.9%.

**Q.** And the “PSA, Median % Change from Baseline” value ([1]; 480/60 mg, Day 280)?
**A.** The value was −96.5%.

**Q.** And the “PSA, Median % Change from Baseline” value ([1]; 480/60 mg, Day 308)?
**A.** Its value is −97.0%.

**Q.** And the “PSA, Median % Change from Baseline” value ([1]; 480/60 mg, Day 336)?
**A.** Its value is −97.4%.

**Q.** What about the “PSA, Median % Change from Baseline” value ([1]; 480/60 mg, Day 364) of the same compound?
**A.** The value was −97.1%.

**Q.** And the “PSA, Median % Change from Baseline” value ([1]; 480/60 mg, Last visit)?
**A.** Its value is −96.5%.

**Q.** What about the “median reductions in PSA sustained throughout the study period” value ([1]; CS18, after Month 1) of the same compound?
**A.** The value was 96-97%.

**Q.** What about the “PSA, Median % Change from Baseline” value ([1]; Total (both arms), Day 28) of the same compound?
**A.** The value was −81.2%.

**Q.** What about the “PSA, Median % Change from Baseline” value ([1]; Total (both arms), Day 56) of the same compound?
**A.** The value was −92.9%.

**Q.** What about the “PSA, Median % Change from Baseline” value ([1]; Total (both arms), Day 84) of the same compound?
**A.** Its value is −94.5%.

**Q.** And the “PSA, Median % Change from Baseline” value ([1]; Total (both arms), Day 112)?
**A.** Its value is −95.4%.

**Q.** And the “PSA, Median % Change from Baseline” value ([1]; Total (both arms), Day 140)?
**A.** The value was −95.9%.

**Q.** What about the “PSA, Median % Change from Baseline” value ([1]; Total (both arms), Day 168) of the same compound?
**A.** The value was −96.6%.

**Q.** What about the “PSA, Median % Change from Baseline” value ([1]; Total (both arms), Day 196) of the same compound?
**A.** Its value is −96.2%.

**Q.** And the “PSA, Median % Change from Baseline” value ([1]; Total (both arms), Day 224)?
**A.** The value was −96.5%.

**Q.** What about the “PSA, Median % Change from Baseline” value ([1]; Total (both arms), Day 252) of the same compound?
**A.** Its value is −96.9%.

**Q.** And the “PSA, Median % Change from Baseline” value ([1]; Total (both arms), Day 280)?
**A.** The value was −97.0%.

**Q.** What about the “PSA, Median % Change from Baseline” value ([1]; Total (both arms), Day 308) of the same compound?
**A.** The value was −97.2%.

**Q.** And the “PSA, Median % Change from Baseline” value ([1]; Total (both arms), Day 336)?
**A.** The value was −97.4%.

**Q.** And the “PSA, Median % Change from Baseline” value ([1]; Total (both arms), Day 364)?
**A.** Its value is −96.9%.

**Q.** What about the “PSA, Median % Change from Baseline” value ([1]; Total (both arms), Last visit) of the same compound?
**A.** Its value is −96.8%.

**Q.** And the “mean trough levels of degarelix” value [2]?
**A.** The value was “approximately 12 ng/mL”.

**Q.** What about the “estimated median degarelix trough concentration” value ([3]; 360 mg) of the same compound?
**A.** Its value is “above 9 ng/mL”.

**Q.** What about the “estimated median degarelix trough concentration” value ([3]; 480 mg) of the same compound?
**A.** The value was “above 9 ng/mL”.

**Q.** What about the “hepatotoxicity: impairment of liver function” value [4] of the same compound?
**A.** The value was “do not show any clinically significant impairment of liver function”.

**Q.** What about the immediate anaphylactic reactions [4] of the same compound?
**A.** Its immediate anaphylactic reactions is “no immediate anaphylactic reactions reported”.

**Q.** And the “incidence of any injection site reaction” value [4]?
**A.** Its value is 26%.

**Q.** And the “injection site reactions of mild intensity” value [4]?
**A.** Its value is 11%.

**Q.** What about the “injection site reactions of moderate intensity” value [4] of the same compound?
**A.** The value was 11%.

**Q.** What about the “patients reporting severe injection site reactions” value [4] of the same compound?
**A.** Its value is 5%.

**Q.** And the level at 1 year ([5]; 360 mg)?
**A.** The level at 1 year was ~10 ng/mL.

**Q.** And the level at 1 year ([5]; 480 mg)?
**A.** The level at 1 year was ~13 ng/mL.
